Laboratory results as given in ChEMBL document CHEMBL4706694, “Novel bicyclic pyrazoles as potent ALK2 (R206H) inhibitors for the treatment of fibrodysplasia ossificans progressiva” (Bioorg Med Chem Lett, 2021).

How the values were obtained:
[1] = Metabolic stability in rat liver microsomes assessed as parent compound remaining incubated for 60 mins in presence of NADPH by LC-MS/MS analysis; settings: read-out: Stabilty
[2] = Metabolic stability in human liver microsomes assessed as parent compound remaining incubated for 60 mins in presence of NADPH by LC-MS/MS analysis; assay type: ADME, Microsome; settings: read-out: Stabilty
[3] = Inhibition of ALK2 R206H in mouse C2C12 cells assessed as reduction in BMP-induced ALP activity using p-nitrophenyl phosphate as substrate
[4] = biological target: MDR1 (ABCB1, P-glycoprotein) (Homo sapiens, UniProt P08183); experiment: Substrate activity at human MDR1 expressed in MDCK-II cells assessed as apparent permeability across apical to basolateral membrane at 10 uM by LC-MS/MS analysis; assay type: ADME, cell-based
MDR1 (ABCB1, P-glycoprotein), sequence (P08183 whole entry): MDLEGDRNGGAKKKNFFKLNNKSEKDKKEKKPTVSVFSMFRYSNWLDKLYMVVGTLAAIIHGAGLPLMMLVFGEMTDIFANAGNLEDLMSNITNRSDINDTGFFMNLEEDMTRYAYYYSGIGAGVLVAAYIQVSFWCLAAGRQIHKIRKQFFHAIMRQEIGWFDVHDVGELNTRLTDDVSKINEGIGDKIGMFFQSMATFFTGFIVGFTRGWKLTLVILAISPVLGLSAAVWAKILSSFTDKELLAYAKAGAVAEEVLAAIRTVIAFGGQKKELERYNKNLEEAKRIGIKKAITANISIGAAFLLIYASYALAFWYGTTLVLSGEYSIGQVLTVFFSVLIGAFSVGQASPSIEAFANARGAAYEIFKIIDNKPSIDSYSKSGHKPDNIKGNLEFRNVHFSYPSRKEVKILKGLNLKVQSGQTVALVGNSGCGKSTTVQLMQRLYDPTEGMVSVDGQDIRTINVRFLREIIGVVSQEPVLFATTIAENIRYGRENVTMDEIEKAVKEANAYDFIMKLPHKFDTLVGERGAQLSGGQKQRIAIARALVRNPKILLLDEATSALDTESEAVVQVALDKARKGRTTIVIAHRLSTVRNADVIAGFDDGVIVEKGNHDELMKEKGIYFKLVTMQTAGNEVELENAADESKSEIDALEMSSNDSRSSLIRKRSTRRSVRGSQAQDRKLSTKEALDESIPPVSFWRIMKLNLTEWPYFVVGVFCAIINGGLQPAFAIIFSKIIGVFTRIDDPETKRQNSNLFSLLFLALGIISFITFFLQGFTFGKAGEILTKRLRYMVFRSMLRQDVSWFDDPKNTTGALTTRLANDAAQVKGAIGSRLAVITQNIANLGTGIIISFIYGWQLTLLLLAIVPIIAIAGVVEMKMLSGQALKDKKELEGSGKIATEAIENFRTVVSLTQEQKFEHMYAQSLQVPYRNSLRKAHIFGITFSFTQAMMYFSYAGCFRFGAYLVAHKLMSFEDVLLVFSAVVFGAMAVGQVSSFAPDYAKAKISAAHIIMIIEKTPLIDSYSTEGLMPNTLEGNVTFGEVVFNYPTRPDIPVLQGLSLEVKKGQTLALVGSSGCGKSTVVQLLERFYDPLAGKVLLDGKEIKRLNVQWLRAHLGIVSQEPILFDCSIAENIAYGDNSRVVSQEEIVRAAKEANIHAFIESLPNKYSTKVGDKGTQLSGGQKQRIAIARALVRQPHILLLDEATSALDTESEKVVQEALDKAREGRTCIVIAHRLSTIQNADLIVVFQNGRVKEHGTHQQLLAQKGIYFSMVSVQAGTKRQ

[5] = biological target: hERG (KCNH2) (Homo sapiens, UniProt Q12809); experiment: Inhibition of human ERG at 10 uM by automated patch method relative to control
hERG (KCNH2), sequence (Q12809 whole entry): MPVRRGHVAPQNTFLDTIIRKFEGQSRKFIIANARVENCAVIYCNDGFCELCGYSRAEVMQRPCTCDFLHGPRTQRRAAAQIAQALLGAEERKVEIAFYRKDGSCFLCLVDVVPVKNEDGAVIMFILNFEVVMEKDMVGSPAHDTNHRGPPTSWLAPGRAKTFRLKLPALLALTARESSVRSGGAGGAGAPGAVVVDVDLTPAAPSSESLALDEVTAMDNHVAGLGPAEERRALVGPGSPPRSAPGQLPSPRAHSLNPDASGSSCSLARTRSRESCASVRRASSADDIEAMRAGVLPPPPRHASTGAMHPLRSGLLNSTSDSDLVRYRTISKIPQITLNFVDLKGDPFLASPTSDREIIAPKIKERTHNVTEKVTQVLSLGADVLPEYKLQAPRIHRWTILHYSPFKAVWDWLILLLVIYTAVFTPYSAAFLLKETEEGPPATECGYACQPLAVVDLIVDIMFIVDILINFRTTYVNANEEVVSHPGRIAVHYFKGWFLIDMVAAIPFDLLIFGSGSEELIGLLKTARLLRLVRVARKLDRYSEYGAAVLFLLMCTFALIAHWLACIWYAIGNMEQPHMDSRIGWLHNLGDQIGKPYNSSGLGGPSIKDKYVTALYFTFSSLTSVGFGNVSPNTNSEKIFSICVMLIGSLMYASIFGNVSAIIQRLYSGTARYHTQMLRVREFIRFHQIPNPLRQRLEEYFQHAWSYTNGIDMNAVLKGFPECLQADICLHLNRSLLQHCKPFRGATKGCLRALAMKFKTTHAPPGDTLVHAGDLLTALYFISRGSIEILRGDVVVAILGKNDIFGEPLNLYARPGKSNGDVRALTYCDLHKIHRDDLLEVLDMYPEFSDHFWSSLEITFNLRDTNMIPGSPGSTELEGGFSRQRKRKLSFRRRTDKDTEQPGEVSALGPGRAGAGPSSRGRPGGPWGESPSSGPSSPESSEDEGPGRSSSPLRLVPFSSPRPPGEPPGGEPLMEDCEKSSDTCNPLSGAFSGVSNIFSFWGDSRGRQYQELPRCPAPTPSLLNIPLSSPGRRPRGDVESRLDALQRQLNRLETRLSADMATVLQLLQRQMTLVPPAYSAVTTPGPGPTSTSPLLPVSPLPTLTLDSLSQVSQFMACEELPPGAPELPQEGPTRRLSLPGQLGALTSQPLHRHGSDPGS

| SMILES | remaining at 1 h [1] [%] | remaining at 1 h [2] [%] | IC50 [3] [nM] | Papp A→B at 10 µM [4] [×10⁻⁶ cm/s] | inhibition at 10 µM [5] [%] |
| --- | --- | --- | --- | --- | --- |
| COc1ccc(Nc2nccc(-c3c[nH]nc3-c3cccnc3)n2)cc1 | 2.1 | 14.8 | > 100 |  |  |
| CN1CCN(c2ccc(Nc3nccc(-c4c(-c5cccnc5)nn5c4COCC5)n3)cc2)CC1 |  |  |  | 4.37 |  |
| COCCN1CCN(c2ccc(Nc3nccc(-c4c(-c5cccnc5)nn5c4COCC5)n3)cc2)CC1 | 40.5 | 56 | 37.3 | 8.69 | 3.6 |
| c1cncc(-c2nn3c(c2-c2ccnc(Nc4ccc(N5CCNCC5)cc4)n2)COCC3)c1 |  |  |  | 0.906 |  |
